Columns and labels:
5-FU-treated mice [1] = assay: Bone marrow hematopoiesis in 5-FU-treated mice (cell counts, morphological analysis); type: in vivo; details: 7 days after 5-FU 150 mg/kg i.p.; 15.3±2.2 before
Procedure: Because mature blood cells are a product of proliferation and differentiation of hematopoietic progenitors, we next examined the effect of HA on bone marrow hematopoiesis in 5-FU-treated mice. 5-FU-treated mice (day 0) were administered PBS or 100 μg/mouse HA (as a 0.05%solution in PBS) on day 4, 6, 10, and 13. Bone marrow cells were harvested on days 7, 14, 21, and 28. On day 7 the total number of bone marrow cells in the HA-treated mice was 3.5-fold higher in comparison to the PBS-treated mice (FIG. 2A). To evaluate the effect of HA on different hematopoietic lineages, a morphological analysis of the bone marrow cells was performed as followed. […]
To examine this assumption, bone marrow cells were cultured in methylcellulose to evaluate the number of proliferating lineage-committed progenitors. […] Colonies containing more then 20 cells were counted under the inverted microscope after 7 days of culture. […] Colonies containing at least 500 cells were counted after 14 days. […] We next investigated whether HA stimulation benefited the pool of committed progenitors at the cost of damaging more primitive progenitors that were measured by using a long-term culture-initiating cells (LTC-IC) assay. The number of LTC-IC in the bone marrow of mice treated with HA was evaluated using a limited dilution assay. […]

5-FU-treated mice [2] = details: mouse, in vivo
Procedure: 5-FU was intraperitoneally injected in mice at 150 mg/kg. The counts of white blood cells (WBC), red blood cells (RBC), platelets (PLT), hemoglobin (HGB) and hematocrit (HCT) were monitored daily for two weeks. As expected, the treatment of mice with 5-FU induced severe bone marrow hypoplasia and pancytopenia. The numbers of WBC and PLT dropped from 8.4±1.5×10^6/ml and 678.4±82×10^6/ml before 5-FU administration to 2.52±0.5×10^6/ml and 388±50×10^6/ml, respectively, 7 days later (FIGS. 1A, B). The total number of mononuclear cells in the bone marrow decreased from 15.3±2.2×10^6/femur before to 5.00±0.65×10^6/femur 7 days after 5-FU administration (FIG. 2A). All parameters were recovered to normal in 14 days after 5-FU administration. To examine the effect of HA on 5-FU-perturbed hematopoiesis, 5-FU-treated (day 0) mice were administered 100 μg/mouse HA as a 0.05% solution in PBS (HA from Sigma-Aldrich, Catalog No.: H1751) on days 4, 6, 10, and 13. A control group of animals was treated with a 200-μl injection of PBS. The peripheral blood from HA- and PBS-treated mice was collected daily and examined for numbers of WBC, RBC, PLT, HGB, and HCT. […] The number of PLT in HA-treated mice was increased starting from day 5 and was elevated by a factor of 1.7 on day 8 (FIG. 1B). […]

SMILES: O=c1[nH]cc(F)c(=O)[nH]1 [5-FU, 5-fluorouracil]
- total number of mononuclear cells in the bone marrow (5-FU-treated mice [1]): 5.00±0.65 ×10^6/femur
- time until all parameters recovered to normal after 5-FU administration (5-FU-treated mice [2]): 14 days

Source: patent publication US20060069064A1, “Methods for facilitating recovery of functions of endogenous or implanted or transplanted stem cells using hyaluronic acid” (priority 2003, published 2006)
